Where two headings read alike, the source gives them in different places.
Tests used:
[1] = system: Key Broadleaf Weed and Crop Species; test: Post-emergent Test II herbicidal activity (Table 5); format: in vivo; conditions: post-emergence, 336 h, 14 days after application; for pest or weed control at 70 g/ha: application rate 70 g ai/ha
Protocol: (§1) Post-emergent Test II: Seeds or nutlets of the desired test plant species were planted in Sun Gro Metro-Mix® 360 planting mixture, which typically has a pH of 6.0 to 6.8 and an organic matter content of about 30 percent, in plastic pots with a surface area of 64 square centimeters. When required to ensure good germination and healthy plants, a fungicide treatment and/or other chemical or physical treatment was applied. The plants were grown for 7-21 d in a greenhouse with an approximate 15 h photoperiod which was maintained at about 23-29° C. during the day and 22-28° C. during the night. Nutrients and water were added on a regular basis and supplemental lighting was provided with overhead metal halide 1000-Watt lamps as necessary. The plants were employed for testing when they reached the first or second true leaf stage.
(§2) A weighed amount, determined by the highest rate to be tested, of each test compound was placed in a 25 mL glass vial and was dissolved in 4 mL of a 97:3 v/v mixture of acetone and DMSO to obtain concentrated stock solutions. […] The concentrated stock solutions obtained were diluted with 20 mL of an aqueous mixture containing acetone, water, isopropyl alcohol, DMSO. Atplus 411F crop oil concentrate, and Triton® X-155 surfactant in a 48.5:39:10:1.5:1.0:0.02 v/v ratio to obtain spray solutions containing the highest application rates. Additional application rates were obtained by serial dilution of 12 mL of the high rate solution into a solution containing 2 mL of 97:3 v/v mixture of acetone and DMSO and 10 mL of an aqueous mixture containing acetone, water, isopropyl alcohol, DMSO, Atplus 411F crop oil concentrate, and Triton X-155 surfactant in a 48.5:39:10:1.5:1.0:0.02 v/v ratio to obtain ½×, ¼×, ⅛× and 1/16× rates of the high rate. Compound requirements are based upon a 12 mL application volume at a rate of 187 liters per hectare (L/ha). Formulated compounds were applied to the plant material with an overhead Mandel track sprayer equipped with 8002E nozzles calibrated to deliver 187 L/ha over an application area of 0.503 square meters at a spray height of 18 inches (43 cm) above the average plant canopy height. Control plants were sprayed in the same manner with the solvent blank.
(§3) The treated plants and control plants were placed in a greenhouse as described above and watered by subirrigation to prevent wash-off of the test compounds. After 14 d, the condition of the test plants as compared with that of the untreated plants was determined visually and scored on a scale of 0 to 100 percent where 0 corresponds to no injury and 100 corresponds to complete kill.

[2] = system: Key Grass and Sedge Weeds as well as Grass Crops; test: Post-emergent Test II herbicidal activity (Table 6); format: in vivo; conditions: post-emergence, 336 h; for pest or weed control at 140 g/ha: application rate 140 g ai/ha; for pest or weed control at 70 g/ha: application rate 70 g ai/ha
Protocol: as §1, §2, §3

[3] = ABUTH: velvetleaf (Abutilon theophrasti), 140 g ai/ha, post-emergent, read-out: Visual Growth Reduction (%) 14 Days After Application ABUTH
[4] = AMARE: redroot pigweed (Amaranthus retroflexus), 140 g ai/ha, post-emergent, read-out: Visual Growth Reduction (%) 14 Days After Application AMARE
[5] = BRSNN: oilseed-rape, canola (Brassica napus), 140 g ai/ha, post-emergent, read-out: Visual Growth Reduction (%) 14 Days After Application BRSNN
[6] = CHEAL: lambsquarters (Chenopodium album), 140 g ai/ha, post-emergent, read-out: Visual Growth Reduction (%) 14 Days After Application CHEAL
[7] = EPHHL: wild poinsettia (Euphorbia heterophylla), 140 g ai/ha, post-emergent, read-out: Visual Growth Reduction (%) 14 Days After Application EPHHL
[8] = HELAN: sunflower (Helianthus annuus), 140 g ai/ha, post-emergent, read-out: Visual Growth Reduction (%) 14 Days After Application HELAN
[9] = VIOTR: wild pansy (Viola tricolor), 140 g ai/ha, post-emergent, read-out: Visual Growth Reduction (%) 14 Days After Application VIOTR
[10] = Triticum aestivum, TRZSS (wheat), read-out: Visual Growth Reduction (%) 14 Days After Application, TRZSS
[11] = CYPES: yellow nutsedge (Cyperus esculentus), read-out: Visual Growth Reduction (%) 14 Days After Application, CYPES
[12] = DIGSA: crabgrass (Digitaria sanguinalis), read-out: Visual Growth Reduction (%) 14 Days After Application, DIGSA
[13] = ECHCG: barnyardgrass (Echinochloa crus-galli), read-out: Visual Growth Reduction (%) 14 Days After Application, ECHCG
[14] = ORYSA: rice (Oryza sativa), read-out: Visual Growth Reduction (%) 14 Days After Application, ORYSA
[15] = SETFA: giant foxtail (Setaria faberi), read-out: Visual Growth Reduction (%) 14 Days After Application, SETFA
[16] = SORVU: grain sorghum (Sorghum vulgare), read-out: Visual Growth Reduction (%) 14 Days After Application, SORVU
[17] = ZEAMX: maize, corn (Zea mays), read-out: Visual Growth Reduction (%) 14 Days After Application, ZEAMX

melting point | SMILES | pest or weed control at 140 g/ha [1, 3] | pest or weed control at 140 g/ha [1, 4] | pest or weed control at 140 g/ha [1, 5] | pest or weed control at 140 g/ha [1, 6] | pest or weed control at 140 g/ha [1, 7] | pest or weed control at 140 g/ha [1, 8] | pest or weed control at 140 g/ha [1, 9] | pest or weed control at 140 g/ha [2, 10] | pest or weed control at 140 g/ha [2, 11] | pest or weed control at 140 g/ha [2, 12] | pest or weed control at 140 g/ha [2, 13] | pest or weed control at 140 g/ha [2, 14] | pest or weed control at 140 g/ha [2, 15] | pest or weed control at 140 g/ha [2, 16] | pest or weed control at 140 g/ha [2, 17] | also measured
128 to 130 °C | COC(=O)c1nc(-c2ccc(Br)cc2)c(C)c(N)c1Cl [Compound 81, methyl 4-amino-6-(4-bromophenyl)-3-chloro-5-methylpicolinate] | 95 to 100% | 95 to 100% | 60 to 74% | 95 to 100% | 75 to 84% | 95 to 100% | 0 to 29% | 45 to 59% | 0 to 29% | 45 to 59% | 0 to 29% | 0 to 29% | 60 to 74% | 75 to 84% | 75 to 84% | –
185.1 to 186.9 °C | COC(=O)c1nc(-c2ccc(C#N)cc2)nc(N)c1OC [Compound 130] | 0 to 29% | 0 to 29% | 0 to 29% | 0 to 29% | 95 to 100% | 85 to 94% | 0 to 29% | 0 to 29% | 0 to 29% | 0 to 29% | 0 to 29% | 0 to 29% | 0 to 29% | 0 to 29% | 0 to 29% | –
149 to 151 °C | Nc1c(F)c(-c2ccc(OC(F)F)cc2F)nc(C(=O)O)c1Cl [Compound 140] | – | – | – | – | – | – | – | 0 to 29% | 0 to 29% | 0 to 29% | – | 0 to 29% | – | 0 to 29% | 0 to 29% | pest or weed control at 70 g/ha ([1]; ABUTH: velvetleaf (Abutilon theophrasti), read-out: Visual Growth Reduction (%) 14 Days After Application, ABUTH): 0 to 29%; pest or weed control at 140 g/ha ([1]; ABUTH: velvetleaf (Abutilon theophrasti), application rate 140 g ai/ha, read-out: Visual Growth Reduction (%) 14 Days After Application, ABUTH): 0 to 29%; pest or weed control at 70 g/ha ([1]; AMARE: redroot pigweed (Amaranthus retroflexus), read-out: Visual Growth Reduction (%) 14 Days After Application, AMARE): 0 to 29%; pest or weed control at 140 g/ha ([1]; AMARE: redroot pigweed (Amaranthus retroflexus), application rate 140 g ai/ha, read-out: Visual Growth Reduction (%) 14 Days After Application, AMARE): 0 to 29%; pest or weed control at 70 g/ha ([1]; BRSNN: oilseed-rape, canola (Brassica napus), read-out: Visual Growth Reduction (%) 14 Days After Application, BRSNN): 0 to 29%; pest or weed control at 140 g/ha ([1]; BRSNN: oilseed-rape, canola (Brassica napus), application rate 140 g ai/ha, read-out: Visual Growth Reduction (%) 14 Days After Application, BRSNN): 0 to 29%; pest or weed control at 70 g/ha ([1]; CHEAL: lambsquarters (Chenopodium album), read-out: Visual Growth Reduction (%) 14 Days After Application, CHEAL): 0 to 29%; pest or weed control at 140 g/ha ([1]; CHEAL: lambsquarters (Chenopodium album), application rate 140 g ai/ha, read-out: Visual Growth Reduction (%) 14 Days After Application, CHEAL): 0 to 29%; pest or weed control at 70 g/ha ([1]; EPHHL: wild poinsettia (Euphorbia heterophylla), read-out: Visual Growth Reduction (%) 14 Days After Application, EPHHL): 85 to 94%; pest or weed control at 140 g/ha ([1]; EPHHL: wild poinsettia (Euphorbia heterophylla), application rate 140 g ai/ha, read-out: Visual Growth Reduction (%) 14 Days After Application, EPHHL): 85 to 94%; pest or weed control at 70 g/ha ([1]; HELAN: sunflower (Helianthus annuus), read-out: Visual Growth Reduction (%) 14 Days After Application, HELAN): 60 to 74%; pest or weed control at 140 g/ha ([1]; HELAN: sunflower (Helianthus annuus), application rate 140 g ai/ha, read-out: Visual Growth Reduction (%) 14 Days After Application, HELAN): 75 to 84%; pest or weed control at 70 g/ha ([1]; VIOTR: wild pansy (Viola tricolor), read-out: Visual Growth Reduction (%) 14 Days After Application, VIOTR): 0 to 29%; pest or weed control at 140 g/ha ([1]; VIOTR: wild pansy (Viola tricolor), application rate 140 g ai/ha, read-out: Visual Growth Reduction (%) 14 Days After Application, VIOTR): 0 to 29%; pest or weed control at 70 g/ha [2, 10]: 0 to 29%; pest or weed control at 70 g/ha [2, 11]: 0 to 29%; pest or weed control at 70 g/ha [2, 12]: 0 to 29%; pest or weed control at 70 g/ha [2, 14]: 0 to 29%; pest or weed control at 70 g/ha [2, 16]: 0 to 29%; pest or weed control at 70 g/ha [2, 17]: 0 to 29%
133.4 to 134.8 °C | COC(=O)c1nc(-c2ccc(C#N)cc2)c(Cl)c(N)c1Cl [Compound 1] | 60 to 74% | 60 to 74% | 0 to 29% | 85 to 94% | 0 to 29% | 95 to 100% | 0 to 29% | 0 to 29% | 30 to 44% | 0 to 29% | 0 to 29% | 0 to 29% | 0 to 29% | 0 to 29% | 0 to 29% | –
122 to 123.6 °C | COC(=O)c1nc(-c2ccc(OC(F)(F)F)cc2)nc(N)c1OC [Compound 30] | 45 to 59% | 0 to 29% | 0 to 29% | 0 to 29% | 95 to 100% | 0 to 29% | 0 to 29% | 0 to 29% | 0 to 29% | 0 to 29% | 0 to 29% | 0 to 29% | 0 to 29% | 0 to 29% | 0 to 29% | –
